Converted amounts (≈) assume the structure as drawn.
Columns and labels:
PI3K = settings: cited from earlier work
C3H mammary model = settings: cited from earlier work
H-157 [1] = assay: Thymidine incorporation proliferation assay, H-157; format: cell-based, human; settings: three days of treatment
Method: (§1) A549 (human non-small cell lung cancer) and H-157 cell lines were purchased from American Type Culture Collection (ATCC) (Rockville, Md.). Cells were cultured in RPMI Medium 1640 containing 10% fetal bovine serum (FBS) in a 37° C. incubator containing 5% CO2. All cell culture reagents were purchased from Gibco-BRL (Grand Island, N.Y.). Cells were plated in 96-well culture plates at about 3000 cells per well. One day following plating, water-soluble drug-polymer conjugates or the vehicle controls were added to cells. Proliferation assays were performed three days post initiation of treatment. For the non-radioactive cell proliferation assay, viable cell densities were determined by measuring metabolic conversion (by viable cells) of the dye MTS tatrazolium dye, a cell proliferation assay known by one of skill in the art (MTS assay), a previously established cell proliferation assay. The assay was performed using assay kit purchased from Promega Corp. (Madison, Wis.). The assay plates were incubated for 1-2 hours and the results were read in a 96-well format plate reader by measuring absorbance at 490 nm. For the thymidine incorporation assay, cells were labeled with [methyl-^3H]-thymidine (PerkinElmer Life Sciences, Boston, Mass.) for 5 hours. Cells were then harvested onto glass-fiber filter membranes and counted in a Wallac 1205 Betaplate liquid scintillation counter. Effect of each drug treatment was calculated as a percentage of control cell growth obtained from vehicle-treated cells grown in the same plate.

[2] = system: A549 (human non-small cell lung cancer); assay: Thymidine incorporation proliferation assay, A549; format: cell-based; settings: three days of treatment
Method: as §1

H-157 [3] = assay: MTS cell proliferation assay, H-157; format: cell-based, human; settings: three days of treatment
Method: as §1

[4] = system: A549 (human non-small cell lung cancer); assay: MTS cell proliferation assay, A549; format: cell-based; settings: three days of treatment
Method: as §1

U87MG glioblastoma = settings: for Tumor Volume t/c, day 0 / Tumor Volume, mean, day 0 / Tumor Volume t/c, day 4 / Tumor Volume, mean, day 4 / Tumor Volume t/c, day 7 / Tumor Volume, mean, day 7 / Tumor Volume t/c, day 11 / Tumor Volume, mean, day 11 / Tumor Volume t/c, day 14 / Tumor Volume, mean, day 14 / Tumor Volume t/c, day 17 / Tumor Volume, mean, day 17: 0.7 mg/kg IV, d 0-4
Method: A tumor cell line for brain tumor, PTEN (−/−) U87MG Glioma was implanted in mice. The mice were dosed IV on days 0-4.
In this experiment, U87MG glioma growing as subcutaneous xenografts in nude mice were staged on day 0, and dosed on days 0-4 at 0.15, 0.5, 1.5, 5 and 15 mg/kg/dose of a wortmannin derivative of this invention.
In the U87MG glioma study shown in FIG. 3, a wortmannin derivative of this invention was dosed IV on days 0-4. Paclitaxel was dosed IP on days 0 and 7. The MTD of paclitaxel is 60 mg/kg/dose following a weekly dosing schedule. Mice were treated with a wortmannin derivative of this invention at 1 mg/kg/dose, paclitaxel at 30 and 60 mg/kg/dose, or treated in combination with a wortmannin derivative of this invention at 1 mg/kg/dose and paclitaxel at 30 mg/kg/dose.
A wortmannin derivative at 1 mg/kg/dose and Peg-rapa at 0.1 mg/kg/dose were dosed IV either alone or in combination on days 0-4.
Balb/c nu/nu (athymic) mice were housed in accordance with Association for Accreditation of Laboratory Animal Care (AALAACC) standards for at least one week prior to their experimental usage. The animals were housed in microisolator cages and handled only in a laminar flow hood. All food and water was autoclaved. Mice were inoculated on the left flank with a volume of 200 μL using a 25-26 gauge sterile needle and syringe with a suspension of cells. The cells were resuspended in full growth media and delivered at 10 million cells per mouse. When the resulting tumors reached the appropriate size for staging, the mice were regrouped to produce equivalent sized groups with n=10. Once staged, the mice were dosed 0.2 cc iv with the water-soluble drug-polymer conjugate II and water-soluble drug-polymer conjugate IV resuspended in sterile, distilled water. Wortmannin and other non-pegylated water-soluble drug-polymer conjugate were prepared 10 mg/ml in Dimethyl sulfoxide (DMSO) and diluted with Phosphate Buffered Saline (PBS) right before injecting into the mouse. Treatment was administered as a daily×5 dosing schedule repeated every 2 weeks until the tumors reach 10% of the animal's weight. The growth of the solid tumor was monitored twice a week for the duration of the experiment. Tumor size was quantitated using sliding vernier calipers and the mass was calculated using the formula […]. Conversion from cubic mm to mg was made assuming unit density. Tumors were not allowed to grow larger than 15% of the mouse's weight, at which point the mouse was euthanized.

Row | Compound | Tumor Volume t/c, day 0 (U87MG glioblastoma) | Tumor Volume, mean, day 0 (U87MG glioblastoma) [mm^3] | Tumor Volume t/c, day 4 (U87MG glioblastoma) | Tumor Volume, mean, day 4 (U87MG glioblastoma) [mm^3] | Tumor Volume t/c, day 7 (U87MG glioblastoma) | Tumor Volume, mean, day 7 (U87MG glioblastoma) [mm^3] | Tumor Volume t/c, day 11 (U87MG glioblastoma) | Tumor Volume, mean, day 11 (U87MG glioblastoma) [mm^3] | Tumor Volume t/c, day 14 (U87MG glioblastoma) | Tumor Volume, mean, day 14 (U87MG glioblastoma) [mm^3] | Tumor Volume t/c, day 17 (U87MG glioblastoma) | Tumor Volume, mean, day 17 (U87MG glioblastoma) [mm^3] | Thymidine Assay IC50, H-157 (H-157 [1]) [µg/mL] | Thymidine Assay IC50, A549 [2] [µg/mL] | MTS Assay IC50, H-157 (H-157 [3]) [µg/mL] | MTS Assay IC50, A549 [4] [µg/mL] | also measured
1 | COCC1OC(=O)c2coc3c2C1(C)C1=C(C3=O)C2CCC(O)C2(C)CC1OC(C)=O (stereo not drawn) [17β-Hydroxywortmannin] |  |  |  |  |  |  |  |  |  |  |  |  |  |  |  |  | increase in activity relative to wortmannin (PI3K; PI3K): 10 fold; IC50 (PI3K): 0.5 nM; antitumor activity in the C3H mammary model (C3H mammary model; dose of 0.5 mg/kg): no inhibition; toxicity in the C3H mammary model (C3H mammary model; dose of 1.0 mg/kg): toxicity
2 | COC[C@H]1OC(=O)c2coc3c2[C@@]1(C)C1=C(C3=O)[C@@H]2CCC(=O)[C@@]2(C)C[C@H]1OC(C)=O [Wortmannin] |  |  |  |  |  |  |  |  |  |  |  |  |  |  |  |  | IC50 (H-157 [1]; Homo sapiens, NCI-H157, 72 h): 3.2 µg/mL (≈ 7.47 µM); IC50 ([2]; Homo sapiens, 72 h): 2.5 µg/mL (≈ 5.84 µM); IC50 (H-157 [3]; Homo sapiens, NCI-H157, 72 h): 10 µg/mL (≈ 23.3 µM); IC50 ([4]; Homo sapiens, 72 h): 9 µg/mL (≈ 21 µM)
3 | CC(=O)O[C@H]1C(=O)[C@@]2(C)[C@H]([C@H](OC(=O)c3ccccc3)[C@]3(O)C[C@H](OC(=O)[C@H](O)[C@@H](NC(=O)c4ccccc4)c4ccccc4)C(C)=C1C3(C)C)[C@]1(OC(C)=O)CO[C@@H]1C[C@@H]2O [paclitaxel, reference compound] |  |  |  |  |  |  |  |  |  |  |  |  |  |  |  |  | MTD of paclitaxel (U87MG glioblastoma; mouse, in vivo, ip): 60 mg/kg/dose
4 | Conjugate (III) of M-PEG-SH 5000 and 17-dihydro-17-(1-iodoacetyl)-wortmannin [Water-soluble drug-polymer conjugate III] | 1.01 | 137.4 | 0.51 | 144.0 | 0.37 | 120.2 | 0.51 | 300.2 | 0.50 | 547.0 | 0.44 | 926.8 | >3 | >3 | >3 | >3 | 
5 | Conjugate (IV) of M-PEG-SH 5000 and 11-desacetyl-11-(1-iodoacetyl)-wortmannin [Water-soluble drug-polymer conjugate IV] | 0.97 | 131.0 | 0.58 | 165.0 | 0.46 | 147.9 | 0.60 | 349.0 | 0.64 | 707.4 | 0.69 | 1454.9 | >3 | >3 | >3 | >3 | 

Reference: patent US20040213757A1, “Water soluble wortmannin derivatives” (Wyeth Holdings Corporation, priority 2003, published 2004)
